Measured values published in patent publication US9096536B2, “Asymmetrically substituted anthrapyridazone derivatives as cytostatics” (BS-154 S.P. ZO.O., priority 2011, dated 2015).
In brackets after ≈: the same amount, converted by molar mass. Where two headings read alike, the source gives them in different places.

How the values were obtained:
[1] = system: human promyelocytic leukemia cell line HL-60; experiment: Cytostatic activity in vitro, HL-60 sensitive line; assay type: cell-based; details: Homo sapiens, HL-60, read-out: HL60 IC50
Description: (§1) Tables 3 and 4 show cytostatic activity in vitro of 2,6-disubstituted and 2- or 6-monosubstituted (Tab.3), and of 2,5-disubstituted-(Tab.-4) tetracyclic anthrapyridazone derivatives using leukemia cell line HL-60 and the resistant cell sublines with resistance induced by vincristine (MDR-1) or doxorubicin (MRP). Activity of compounds is differentiated depending on their structure, but in all cases resistance indexes are more advantageous in comparison with reference compounds: doxorubicin and mitoxantrone.

[2] = system: HL60/VINC; experiment: Cytostatic activity in vitro, vincristine-induced resistant subline (MDR-1); assay type: cell-based, human; details: for IC50: Homo sapiens, HL60/vinc; for RI resistance index HL60/VINC: HL60/VINC vs HL60, 72 h
Description: as §1

[3] = system: HL60/DX; experiment: Cytostatic activity in vitro, doxorubicin-induced resistant subline (MRP); assay type: cell-based, human; details: for IC50: Homo sapiens, HL-60; for RI resistance index HL60/DX: IC50(resistant cells)/IC50(sensitive cells)
Description: as §1

[4] = system: human prostate cancer cell line DU145; experiment: Cytostatic activity in vitro, prostate cancer DU145; assay type: cell-based; details: Homo sapiens, DU-145; 72 h continuous exposure
Description: (§2) Table 5 presents activity in vitro of anthrapiridazone derivatives towards three cell lines of prostate cancer, naturally multidrug resistant, in comparison with references doxorubicin, mitoxantrone and taxol.

[5] = system: human prostate cancer cell line LNCaP; experiment: Cytostatic activity in vitro, prostate cancer LNCaP; assay type: cell-based; details: Homo sapiens, LNCaP; 72 h continuous exposure
Description: as §2

[6] = system: human prostate cancer cell line PC3; experiment: Cytostatic activity in vitro, prostate cancer PC3; assay type: cell-based; details: Homo sapiens; 72 h continuous exposure
Description: as §2

[7] = system: human breast cancer cell line MCF7; experiment: Cytostatic activity in vitro, breast cancer MCF7; assay type: cell-based; details: Homo sapiens, MCF7; 72 h continuous exposure
Description: (§3) It should be mentioned that resistance index is above one order of magnitude better in comparison with doxorubicin and mitoxantrone.

[8] = system: MCF7/DX; experiment: Cytostatic activity in vitro, resistant breast cancer subline MCF7/DX (MDR-1); assay type: cell-based, human; details: for IC50: Homo sapiens, MCF7/DX, 72 h continuous exposure; for RI resistance index MCF7/DX: IC50(resistant cells)/IC50(sensitive cells), MCF7/DX vs MCF7
Description: as §3

[9] = system: human colon adenocarcinoma HT29; experiment: Cytostatic activity in vitro, colon adenocarcinoma HT29; assay type: cell-based; details: Homo sapiens, HT-29; 72 h continuous exposure
Description: (§4) Table 7 presents activity in vitro of selected anthrapyridazone derivatives according to the invention towards sensitive and resistant (MDR-1 type) cell line of human colon adenocarcinoma with resistance induced by mitoxantrone.

[10] = system: HT29/MIT; experiment: Cytostatic activity in vitro, mitoxantrone-induced resistant subline HT29/MIT; assay type: cell-based, human; details: for IC50: Homo sapiens, HT-29, 72 h continuous exposure; for RI resistance index HT29/MIT: IC50(resistant cells)/IC50(sensitive cells), HT29/MIT vs HT29
Description: as §4

[11] = system: uterus cancer MES-SA; experiment: Cytostatic activity, panel: uterus cancer MES-SA; assay type: cell-based; details: Homo sapiens, MES-SA; 72 h continuous exposure
Description: (§5) Tables 8A and 8B present cytostatic activity in vitro of selected anthrapyridazone derivatives according to the invention against panel of sensitive and resistant cell lines, in comparison with doxorubicin, cisplatine and mitoxantrone.

[12] = system: MES-SA/DX5; experiment: Cytostatic activity, panel: MES-SA/DX5 resistant to doxorubicin; assay type: cell-based; details: for IC50: Homo sapiens, MES-SA/Dx5, 72 h continuous exposure; for RI MES-SA MES-SA/DX5: IC50(resistant cells)/IC50(sensitive cells)
Description: as §5

[13] = system: colon cancer LoVo; experiment: Cytostatic activity, panel: colon cancer LoVo; assay type: cell-based; details: Homo sapiens, LoVo; 72 h continuous exposure
Description: as §5

[14] = system: LoVo/DX; experiment: Cytostatic activity, panel: LoVo/DX resistant to doxorubicin; assay type: cell-based; details: for RI LoVo LoVo/DX: IC50(resistant cells)/IC50(sensitive cells); for IC50: LoVo/DX, 72 h continuous exposure
Description: as §5

[15] = system: CT-DNA; experiment: Interaction with isolated CT-DNA, fluorescence competition with ethidium bromide; assay type: binding; details: for IC50: 50% decrease in fluorescence intensity of DNA-bromide ethydine complex; for Kapp relative constant of DNA-compound bonding: Kapp = (1.26/C50) × KEtBr, KEtBr = 10^7M
Description: It could be supposed that this property explains cytostatic activity of compounds. In Table 9 there are presented quantitative data on the affinity to DNA of tested compounds using the fluorescence method and competitive affinity to DNA of bromine ethydine and tested compounds.

[16] = system: HL60/VINC; experiment: Substrate properties: activity against HL60/VINC in the presence of cyclosporine A (MDR-1 pump inhibitor); assay type: cell-based, human; details: FIG. 2
Description: FIG. 2 shoes experimentally determined substrate properties of selected antgraoyridazone derivatives vs. Doxorubicin and Mitroxantrone. Activity in vitro against human promyelacytic leykemia cell line HL60/VINC in the presence of cyclosporine A (MDR-1 pump inhibitor).

[17] = system: HL60/DX; experiment: Substrate properties: activity against HL60/DX in the presence of BSO (MRP pump inhibitor); assay type: cell-based, human; details: FIG. 3
Description: Activity in vitro against human promyelolytic leukemia HL60/DX in the presence of D-L-buthionine-(S,R)-sulphoximine (BSO), MRP pump inhibitor.

[18] = system: lymphoblastic leukemia CCRF-CEM; experiment: Cytostatic activity, panel: lymphoblastic leukemia CCRF-CEM; assay type: cell-based; details: Homo sapiens, CCRF-CEM; 72 h continuous exposure
Description: as §5

[19] = system: CEM/C2; experiment: Cytostatic activity, panel: CEM/C2 resistant to camptotecine; assay type: cell-based
Description: as §5

[20] = system: promyelolytic leukemia HL-60; experiment: Cytostatic activity, panel: promyelolytic leukemia HL-60; assay type: cell-based; details: Homo sapiens, HL-60; 72 h continuous exposure; read-out: IC50 HL60
Description: as §5

[21] = system: HL60/MX2; experiment: Cytostatic activity, panel: HL60/MX2 resistant to mitoxantrone; assay type: cell-based
Description: as §5

[22] = 50% inhibition of cell growth after 72 h continuous exposure
[23] = IC50(resistant cells)/IC50(sensitive cells)

| SMILES | IC50 [1, 22] | IC50 ([2]; 72 h continuous exposure) | RI resistance index HL60/VINC [2, 23] | IC50 ([3]; 72 h continuous exposure) | RI resistance index HL60/DX ([3]; HL60/DX vs HL60, 72 h) | IC50 [4] | IC50 [5] | IC50 [6] | IC50 [7] | IC50 [8] | RI resistance index MCF7/DX [8] | IC50 [9] | IC50 [10] | RI resistance index HT29/MIT [10] | IC50 [11] | IC50 [12] | RI MES-SA MES-SA/DX5 [12] | IC50 [13] | RI LoVo LoVo/DX [14] | IC50 [14] | also measured |
| --- | --- | --- | --- | --- | --- | --- | --- | --- | --- | --- | --- | --- | --- | --- | --- | --- | --- | --- | --- | --- | --- |
| COc1cccc2c1C(=O)c1c(O)c3c(c(O)c1C2=O)C[C@@](O)(C(=O)CO)C[C@@H]3O[C@H]1C[C@H](N)[C@H](O)[C@H](C)O1 [Doxorubicin, reference compound] | 16 ± 1 nM | 882 ± 68 nM | 55.1 | 9480 ± 1300 nM | 592.8 | 38 ± 7.6 nM | 22.4 ± 1.9 nM | 106 ± 7 nM | 19 ± 3.3 nM | 932 ± 145 nM | 49.1 | 64.5 ± 19.2 nM | 97.1 ± 20.9 nM | 1.5 | 0.0705 µg/mL (≈ 0.13 µM) | 13.6 µg/mL (≈ 25 µM) | 181.2 | 0.224 µg/mL (≈ 0.413 µM) | 54.7 | 12.1 µg/mL (≈ 22.2 µM) | IC50 ([1]; 96 h continuous exposure): 9.5 ± 2 nM; IC50 ([2]; 96 h continuous exposure, read-out: HL60VINC IC50): 734 ± 72 nM; RI resistance index HL60VINC ([2]; IC50(resistant cells)/IC50(sensitive cells), 96 h): 77.3; IC50 ([3]; 96 h continuous exposure): 1860 ± 143 nM; RI resistance index HL60/DX ([3]; 96 h): 195.7; IC50 [15]: 80 nM; Kapp relative constant of DNA-compound bonding [15]: 1.5e+08 M⁻¹; Effect of blocking MDR-1 pump with cyclosporine A (CSA) on cytostatic activity [16]: has positive influence on maintaining the cytostatic activity; Effect of MRP protein inhibitor (BSO) on cytostatic activity [17]: essentially influences the cytostatic activity |
| O=C1c2c(O)ccc(O)c2C(=O)c2c(NCCNCCO)ccc(NCCNCCO)c21 [Mitoxantrone, 1,4-dihydroxy-5,8-bis[2-(2-hydroxyethylamino)ethylamino]-9,10-anthracenodione, reference compound] | 2.1 ± 0.2 nM | 65.7 ± 6.7 nM | 31.3 | 3430 ± 661 nM | 1633.8 | 8.5 ± 1.5 nM | 7.4 ± 1.1 nM | 18.6 ± 3.8 nM | 7.4 ± 1.9 nM | 471 ± 160 nM | 63.6 | 11.4 ± 3.9 nM | 854 ± 158 nM | 74.9 | 0.23 ± 0.121 µg/mL (≈ 0.517 µM) | 0.66 ± 0.059 µg/mL (≈ 1.48 µM) | 2.9 | 0.22 ± 0.067 µg/mL (≈ 0.495 µM) | 9.5 | 2.09 ± 0.519 µg/mL (≈ 4.7 µM) | IC50 [18]: 0.0025 µg/mL (≈ 0.00562 µM); IC50 ([19]; Homo sapiens, CEM/C2, 72 h continuous exposure): 0.0028 µg/mL (≈ 0.0063 µM); RI CCRF-CEM CEM/C2 [19, 23]: 1.1; IC50 [20]: 0.0083 µg/mL (≈ 0.0187 µM); IC50 ([21]; Homo sapiens, HL60/MX2, 72 h continuous exposure): 0.356 µg/mL (≈ 0.801 µM); RI HL60 HL60/MX2 [21, 23]: 42.9; IC50 [15]: 48 ± 4 nM; Kapp relative constant of DNA-compound bonding [15]: 2.61e+08 M⁻¹; Effect of blocking MDR-1 pump with cyclosporine A (CSA) on cytostatic activity [16]: has positive influence on maintaining the cytostatic activity; Effect of MRP protein inhibitor (BSO) on cytostatic activity [17]: essentially influences the cytostatic activity |
